The values below come from US8580825B2, “Oxadiazole inhibitors of leukotriene production” (Boehringer Ingelheim International GmbH, priority 2010, dated 2013).

Experiment [1] deals with biomarkers for myocardial infarction risk. Particulars: clinical trial; cited from earlier work.
Experiment [2] addresses T1, recombinant human FLAP protein (Homo sapiens, UniProt P20292).
T1 construct: made in house; host or cells: Sf9 insect cells (100,000xg membrane fraction used)
T1 sequence (P20292 1-161): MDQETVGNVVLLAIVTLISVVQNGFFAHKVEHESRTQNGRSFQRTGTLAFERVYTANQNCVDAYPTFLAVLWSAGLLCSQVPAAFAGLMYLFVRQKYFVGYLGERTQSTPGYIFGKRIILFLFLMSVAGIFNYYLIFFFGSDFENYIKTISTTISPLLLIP
As to the kind of experiment: FLAP binding assay (Scintillation Proximity Assay, displacement of [125I]L-691,831). Particulars: read-out: FLAP SPA IC50. In outline: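 Scintillation proximity displacement of [125I]L-691,831 (0.08 nM) from membranes of sf9 cells expressing recombinant human FLAP (5 μg/well) on WGA SPA beads, pH 7.5 Tris buffer. Plates shaken 2 h before counting. Non-specific binding defined with 10 μM unlabelled L-691,831.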
Background: Scintillation proximity formats need no separation of bound from free tracer.

In experiment [3] the test system is synthesis of LTB4 in human whole blood. The experiment can be described thus: human whole blood LTB4 production inhibition assay. The class given is cell-based. The conditions noted are these: calcimycin stimulated, read-out: hWB LTB4 IC50. In outline: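 Steps: compound plus heparinized human whole blood, 15 min at 37° C; add calcimycin to 20 μM final; incubate another 30 min at 37° C; centrifuge at low speed and collect plasma; measure LTB4 with a homogeneous time-resolved fluorescence immunoassay.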

Another experiment has as its system human glomerulonephritis. The conditions noted are these: clinical trial; cited from earlier work.
Experiment [4] relates to apoE/LDL-R double knockout mice. Particulars: oral dosing, high-fat diet from 2 months of age to 6 months; cited from earlier work.
The test system of another experiment is ApoE−/−xCD4dnTβRII mice. Particulars: infusion, treated for four weeks; cited from earlier work.

Regarding `O=C(O)[C@@H](c1ccc(OCc2ccc3ccccc3n2)cc1)C1CCCC1` [DG-031], the “effect on biomarkers for myocardial infarction risk” value in experiment [1] is recorded as “dose-dependent suppression of several biomarkers”.

Regarding `CC(C)(O)Cn1cc(-c2nc([C@@](C)(c3ccc(-c4cnc(N)nc4C#N)nc3)C3CC3)no2)cn1` [Example 163, 2-Amino-5-[5-((R)-1-cyclopropyl-1-{5-[1-(2-hydroxy-2-methyl-propyl)-1H-pyrazol-4-yl]-[1,2,4]oxadiazol-3-yl}-ethyl)-pyridin-2-yl]-pyrimidine-4-carbonitrile], the IC50 (in general, the concentration that gives 50% inhibition) in experiment [2] amounted to 290 nM; in experiment [3], 348 nM. `CC(C)(O)Cn1cc(-c2nc([C@@](C)(c3ccc(-c4cnc(N)c(C#N)n4)nc3)C3CC3)no2)cn1` [Example 164, 3-Amino-6-[5-((R)-1-cyclopropyl-1-{5-[1-(2-hydroxy-2-methyl-propyl)-1H-pyrazol-4-yl]-[1,2,4]oxadiazol-3-yl}-ethyl)-pyridin-2-yl]-pyrazine-2-carbonitrile]: the half-inhibitory concentration (IC50) in experiment [2] was determined as 40 nM; in experiment [3], 97 nM. The matching figures for `CNc1ncc(-c2ccc([C@](C)(c3noc(-c4cnn(CC(C)(C)O)c4)n3)C3CC3)cn2)cn1` [Example 165, 1-[4-(3-{(R)-1-Cyclopropyl-1-[6-(2-methylamino-pyrimidin-5-yl)-pyridin-3-yl]-ethyl}-[1,2,4]oxadiazol-5-yl)-pyrazol-1-yl]-2-methyl-propan-2-ol]: 56 nM and 82 nM. `Cc1nc(N)cnc1-c1ccc([C@](C)(c2noc(-c3cnn(CC(C)(C)O)c3)n2)C2CC2)cn1` [Example 166, 1-[4-(3-{(R)-1-[6-(5-Amino-3-methyl-pyrazin-2-yl)-pyridin-3-yl]-1-cyclopropyl-ethyl}-[1,2,4]oxadiazol-5-yl)-pyrazol-1-yl]-2-methyl-propan-2-ol]: the IC50 in experiment [2] was found to be 41 nM; in experiment [3], 57 nM. For the compound `CC(C)(O)Cn1cc(-c2nc([C@@](C)(c3ccc(-c4cnc(N)c(F)c4)nc3)C3CC3)no2)cn1` [Example 177, 1-(4-{3-[(R)-1-(6′-Amino-5′-fluoro-[2,3′]bipyridinyl-5-yl)-1-cyclopropyl-ethyl]-[1,2,4]oxadiazol-5-yl}-pyrazol-1-yl)-2-methyl-propan-2-ol], the half-inhibitory concentration (IC50) was 65 nM in experiment [2] and 256 nM in experiment [3]. For `CC(C)(O)Cn1cc(-c2nc([C@](C)(c3ccc(-c4cnc(N)c(F)c4)nc3)C3CC3)no2)cn1` [Example 178, 1-(4-{3-[(S)-1-(6′-Amino-5′-fluoro-[2,3′]bipyridinyl-5-yl)-1-cyclopropyl-ethyl]-[1,2,4]oxadiazol-5-yl}-pyrazol-1-yl)-2-methyl-propan-2-ol], the values for the concentration for half-maximal inhibition (IC50) in experiment [2] and in experiment [3] were 2000 nM and 2350 nM, respectively. As for `Cc1nc(N)ncc1-c1ccc(C(C)(c2noc(-c3cnn(CC(C)(C)O)c3)n2)C2CC2)cn1` (centres unmarked) [Example 179, 1-[4-(3-{1-[6-(2-Amino-4-methyl-pyrimidin-5-yl)-pyridin-3-yl]-1-cyclopropyl-ethyl}-[1,2,4]oxadiazol-5-yl)-pyrazol-1-yl]-2-methyl-propan-2-ol], the concentration for half-maximal inhibition (IC50) in experiment [2] is 450 nM; in experiment [3] it was 483 nM. On to `Cc1nc(N)ncc1-c1ccc(C(C)(c2noc(-c3cnn(C)c3)n2)C2CC2)cn1` (centres unmarked) [Example 180, 5-(5-{1-Cyclopropyl-1-[5-(1-methyl-1H-pyrazol-4-yl)-[1,2,4]oxadiazol-3-yl]-ethyl}-pyridin-2-yl)-4-methyl-pyrimidin-2-ylamine], for which the concentration for half-maximal inhibition (IC50) was found to be 190 nM in experiment [2] and 309 nM in experiment [3]. The matching figures for `Cn1cc(-c2nc(C(C)(c3ccc(-c4cnc(N)cn4)nc3)C3CC3)no2)cn1` (centres unmarked) [Example 181, 5-(5-{1-Cyclopropyl-1-[5-(1-methyl-1H-pyrazol-4-yl)-[1,2,4]oxadiazol-3-yl]-ethyl}-pyridin-2-yl)-pyrazin-2-ylamine]: 34 nM and 65 nM. As for `CC(C)(C)Sc1c(CC(C)(C)C(=O)O)n(Cc2ccc(Cl)cc2)c2ccc(OCc3ccc4ccccc4n3)cc12` [MK-591], the effect on proteinuria result in the experiment on human glomerulonephritis is reported as “reduce proteinuria”. With `CC(C)c1ccc2c(c1)c(SC(C)(C)C)c(CC(C)(C)C(=O)O)n2Cc1ccc(Cl)cc1` [MK-886], in experiment [4], the “decrease in plaque coverage in the aorta” value is 56% and the “decrease in plaque coverage in the aortic root” value was 43%. Further, the “decrease in plaque area in the aortic root” value in the experiment on ApoE−/−xCD4dnTβRII mice is about 40%.
